{"source": "paper PMC9631887", "about": "(ACS Omega, 2022)", "data": [{"experiment": "PAMPA-BBB", "conditions": "not given", "values": [{"smiles": "Cn1c(=O)c2c(ncn2C)n(C)c1=O", "note": "[caffeine]", "classification": "BBB– (Pe values <1.57 were classified as nonpermeable (BBB−))"}, {"smiles": "CCn1cc(C(=O)O)c(=O)c2cc(F)c(N3CCNCC3)nc21", "note": "[enoxacin]", "classification": "BBB– (Pe values <1.57 were classified as nonpermeable (BBB−))"}]}, {"experiment": "PAMPA-GIT", "conditions": "PAMPA", "units": {"Papp at 8 h, 500 μM": "×10⁻⁶ cm/s"}, "values": [{"smiles": "O=c1ccc2ccccc2o1", "note": "[coumarin]", "Papp at 8 h, 500 μM": 27.9}, {"smiles": "O=C(O)Cc1ccccc1Nc1c(Cl)cccc1Cl", "note": "[diclofenac]", "Papp at 8 h, 500 μM": 14}]}, {"experiment": "PAMPA-GIT", "conditions": "PAMPA-GIT", "units": {"experimental fraction absorption": "%"}, "values": [{"smiles": "O=c1ccc2ccccc2o1", "note": "[coumarin]", "experimental fraction absorption": 100.00}, {"smiles": "O=C(O)Cc1ccccc1Nc1c(Cl)cccc1Cl", "note": "[diclofenac]", "experimental fraction absorption": 100.00}, {"smiles": "C[C@]12CCC(=O)C=C1CC[C@@H]1[C@@H]2[C@@H](O)C[C@@]2(C)[C@H]1CC[C@]2(O)C(=O)CO", "note": "[hydrocortisone]", "experimental fraction absorption": 100.00}, {"smiles": "CCn1cc(C(=O)O)c(=O)c2cc(F)c(N3CCNCC3)cc21", "note": "[norfloxacin]", "experimental fraction absorption": 51.39}, {"smiles": "CNC(=C[N+](=O)[O-])NCCSCc1ccc(CN(C)C)o1", "note": "[ranitidine]", "experimental fraction absorption": 49.75}]}, {"experiment": "PAMPA-GIT", "conditions": "PAMPA-GIT, fraction absorption classification", "values": [{"smiles": "CC(C)NCC(O)COc1ccc(CC(N)=O)cc1", "note": "(stereo not shown) [atenolol]", "classification": "low (Low, 0–29% Fa)"}, {"smiles": "O=c1ccc2ccccc2o1", "note": "[coumarin]", "classification": "high (High, 70–100% Fa)"}, {"smiles": "O=C(O)Cc1ccccc1Nc1c(Cl)cccc1Cl", "note": "[diclofenac]", "classification": "high (High, 70–100% Fa)"}, {"smiles": "CCn1cc(C(=O)O)c(=O)c2cc(F)c(N3CCNCC3)cc21", "note": "[norfloxacin]", "classification": "intermediate (Intermediate, 30–69% Fa)"}, {"smiles": "CNC(=C[N+](=O)[O-])NCCSCc1ccc(CN(C)C)o1", "note": "[ranitidine]", "classification": "intermediate (Intermediate, 30–69% Fa)"}]}, {"experiment": "not given", "conditions": "QC standards; ref Zhu et al.[29]; cited from earlier work", "units": {"literature fraction absorption": "%"}, "values": [{"smiles": "CO/N=C(\\C(=O)N[C@@H]1C(=O)N2C(C(=O)O)=C(CSc3nc(=O)c(=O)[nH]n3C)CS[C@H]12)c1csc(N)n1", "note": "[ceftriaxone]", "literature fraction absorption": 1}, {"smiles": "O=C(O)Cc1ccccc1Nc1c(Cl)cccc1Cl", "note": "[diclofenac]", "literature fraction absorption": 100}]}]}
